# Assay results taken from ChEMBL document CHEMBL4507284, “Data for DCP probe BI-1230” (2021).
# Key:
# [1] = target: Phosphatidylinositol 4,5-bisphosphate 3-kinase catalytic subunit gamma isoform (Homo sapiens) (UniProt P48736); conditions: Compound concentration 1000.0 nM
# [2] = target: Sigma intracellular receptor 2 (Homo sapiens) (UniProt Q5BJF2); conditions: Compound concentration 10.0 uM
# [3] = target: Muscarinic acetylcholine receptor M4 (Homo sapiens) (UniProt P08173); conditions: Compound concentration 10.0 uM
# [4] = system: Tyrosine-protein kinase ABL1 (Homo sapiens), P00519 [Y253F]; conditions: Compound concentration 1000.0 nM
# [5] = target: Serine/threonine-protein kinase MRCK gamma (Homo sapiens) (UniProt Q6DT37); conditions: Compound concentration 1000.0 nM
# [6] = target: Serine/threonine-protein kinase BRSK1 (Homo sapiens) (UniProt Q8TDC3); conditions: Compound concentration 1000.0 nM
# [7] = target: Mitogen-activated protein kinase kinase kinase 6 (Homo sapiens) (UniProt O95382); conditions: Compound concentration 1000.0 nM
# [8] = system: Epidermal growth factor receptor (Homo sapiens), P00533 [UNDEFINED MUTATION]; conditions: Compound concentration 1000.0 nM
# Chain of Epidermal growth factor receptor (Homo sapiens), P00533 [UNDEFINED MUTATION] (P00533 whole entry, looked up, change not shown): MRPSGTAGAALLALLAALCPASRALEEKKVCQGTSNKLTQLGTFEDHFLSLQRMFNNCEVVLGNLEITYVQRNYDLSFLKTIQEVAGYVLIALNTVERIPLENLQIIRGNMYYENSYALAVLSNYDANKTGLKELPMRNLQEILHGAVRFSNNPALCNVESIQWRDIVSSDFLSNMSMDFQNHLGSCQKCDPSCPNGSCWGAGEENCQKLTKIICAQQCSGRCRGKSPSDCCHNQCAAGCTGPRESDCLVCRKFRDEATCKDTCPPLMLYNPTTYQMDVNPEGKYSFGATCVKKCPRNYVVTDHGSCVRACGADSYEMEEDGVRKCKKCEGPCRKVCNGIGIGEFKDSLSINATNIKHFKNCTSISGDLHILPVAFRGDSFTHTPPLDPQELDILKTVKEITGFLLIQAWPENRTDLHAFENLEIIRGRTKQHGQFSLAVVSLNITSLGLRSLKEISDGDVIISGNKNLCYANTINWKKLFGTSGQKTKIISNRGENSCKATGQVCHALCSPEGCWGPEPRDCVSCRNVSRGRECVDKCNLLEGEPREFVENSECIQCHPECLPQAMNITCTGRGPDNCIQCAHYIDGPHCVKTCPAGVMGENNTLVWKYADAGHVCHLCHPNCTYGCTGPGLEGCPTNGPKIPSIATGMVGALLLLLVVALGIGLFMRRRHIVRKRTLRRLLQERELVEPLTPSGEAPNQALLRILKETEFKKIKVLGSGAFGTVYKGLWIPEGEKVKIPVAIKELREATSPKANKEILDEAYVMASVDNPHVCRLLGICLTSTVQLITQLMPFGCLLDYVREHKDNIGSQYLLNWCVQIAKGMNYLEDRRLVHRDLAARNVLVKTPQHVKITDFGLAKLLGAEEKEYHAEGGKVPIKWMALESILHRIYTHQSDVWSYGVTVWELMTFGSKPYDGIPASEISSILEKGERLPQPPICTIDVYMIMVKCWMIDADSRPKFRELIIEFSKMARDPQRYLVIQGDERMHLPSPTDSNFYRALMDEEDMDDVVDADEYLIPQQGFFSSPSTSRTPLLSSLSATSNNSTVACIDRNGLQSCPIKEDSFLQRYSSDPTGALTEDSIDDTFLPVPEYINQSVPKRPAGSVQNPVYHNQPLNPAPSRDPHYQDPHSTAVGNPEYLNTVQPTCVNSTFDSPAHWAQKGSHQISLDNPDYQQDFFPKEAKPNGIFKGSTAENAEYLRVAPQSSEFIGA
# [9] = target: Serine/threonine-protein kinase SIK1 (Homo sapiens) (UniProt P57059); conditions: Compound concentration 1000.0 nM
# Chain of Serine/threonine-protein kinase SIK1 (Homo sapiens) (P57059 whole entry): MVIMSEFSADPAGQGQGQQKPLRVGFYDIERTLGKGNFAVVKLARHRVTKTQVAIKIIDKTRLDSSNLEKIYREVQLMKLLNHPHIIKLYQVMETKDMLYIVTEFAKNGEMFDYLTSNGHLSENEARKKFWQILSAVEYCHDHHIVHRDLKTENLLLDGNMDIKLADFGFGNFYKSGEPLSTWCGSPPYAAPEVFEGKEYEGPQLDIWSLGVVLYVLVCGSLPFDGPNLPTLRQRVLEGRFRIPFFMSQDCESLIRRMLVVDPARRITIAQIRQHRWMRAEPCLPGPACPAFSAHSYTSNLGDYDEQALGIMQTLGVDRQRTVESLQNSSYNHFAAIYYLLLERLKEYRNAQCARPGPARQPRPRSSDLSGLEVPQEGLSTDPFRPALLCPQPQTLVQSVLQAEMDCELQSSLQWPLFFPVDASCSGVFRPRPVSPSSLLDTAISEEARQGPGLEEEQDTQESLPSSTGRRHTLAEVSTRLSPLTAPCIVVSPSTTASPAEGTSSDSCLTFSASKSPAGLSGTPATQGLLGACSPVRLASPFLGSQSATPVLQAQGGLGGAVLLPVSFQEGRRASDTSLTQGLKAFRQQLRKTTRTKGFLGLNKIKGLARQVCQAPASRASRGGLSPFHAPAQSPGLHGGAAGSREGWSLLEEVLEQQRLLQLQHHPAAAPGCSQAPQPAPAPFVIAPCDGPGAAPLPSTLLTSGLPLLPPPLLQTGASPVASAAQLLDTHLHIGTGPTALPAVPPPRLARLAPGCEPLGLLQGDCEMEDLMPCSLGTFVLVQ
# [10] = target: Receptor tyrosine-protein kinase erbB-4 (Homo sapiens) (UniProt Q15303); conditions: Compound concentration 1000.0 nM
# [11] = target: Casein kinase I isoform delta (Homo sapiens) (UniProt P48730); conditions: Compound concentration 1000.0 nM
# [12] = target: 5-hydroxytryptamine receptor 1D (Homo sapiens) (UniProt P28221); conditions: Compound concentration 10.0 uM
# Chain of 5-hydroxytryptamine receptor 1D (Homo sapiens) (P28221 whole entry): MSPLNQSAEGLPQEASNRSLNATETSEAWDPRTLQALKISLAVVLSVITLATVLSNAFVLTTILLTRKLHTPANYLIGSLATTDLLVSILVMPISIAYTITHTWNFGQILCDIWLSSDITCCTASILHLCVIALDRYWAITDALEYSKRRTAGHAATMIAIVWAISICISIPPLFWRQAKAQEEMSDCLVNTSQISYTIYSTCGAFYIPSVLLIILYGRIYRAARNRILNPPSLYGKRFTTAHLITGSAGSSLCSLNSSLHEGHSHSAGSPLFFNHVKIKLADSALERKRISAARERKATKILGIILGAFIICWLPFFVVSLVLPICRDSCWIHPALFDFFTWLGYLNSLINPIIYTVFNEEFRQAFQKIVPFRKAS
# [13] = target: Citron Rho-interacting kinase (Homo sapiens) (UniProt O14578); conditions: Compound concentration 1000.0 nM
# [14] = target: Ephrin type-B receptor 1 (Homo sapiens) (UniProt P54762); conditions: Compound concentration 1000.0 nM
# [15] = system: Tyrosine-protein kinase ABL1 (Homo sapiens), P00519 [F317L]; conditions: Compound concentration 1000.0 nM
# [16] = target: Activin receptor type-1B (Homo sapiens) (UniProt P36896); conditions: Compound concentration 1000.0 nM
# [17] = target: Serine/threonine-protein kinase Chk2 (Homo sapiens) (UniProt O96017); conditions: Compound concentration 1000.0 nM
# [18] = system: Phosphatidylinositol 4,5-bisphosphate 3-kinase catalytic subunit alpha isoform (Homo sapiens), P42336 [H1047L]; conditions: Compound concentration 1000.0 nM
# [19] = system: Proto-oncogene tyrosine-protein kinase receptor Ret (Homo sapiens), P07949 [V804L]; conditions: Compound concentration 1000.0 nM
# [20] = system: Phosphatidylinositol 4,5-bisphosphate 3-kinase catalytic subunit alpha isoform (Homo sapiens), P42336 [M1043I]; conditions: Compound concentration 1000.0 nM
# Chain of Phosphatidylinositol 4,5-bisphosphate 3-kinase catalytic subunit alpha isoform (Homo sapiens), P42336 [M1043I] (P42336 whole entry M1043I, canonical isoform): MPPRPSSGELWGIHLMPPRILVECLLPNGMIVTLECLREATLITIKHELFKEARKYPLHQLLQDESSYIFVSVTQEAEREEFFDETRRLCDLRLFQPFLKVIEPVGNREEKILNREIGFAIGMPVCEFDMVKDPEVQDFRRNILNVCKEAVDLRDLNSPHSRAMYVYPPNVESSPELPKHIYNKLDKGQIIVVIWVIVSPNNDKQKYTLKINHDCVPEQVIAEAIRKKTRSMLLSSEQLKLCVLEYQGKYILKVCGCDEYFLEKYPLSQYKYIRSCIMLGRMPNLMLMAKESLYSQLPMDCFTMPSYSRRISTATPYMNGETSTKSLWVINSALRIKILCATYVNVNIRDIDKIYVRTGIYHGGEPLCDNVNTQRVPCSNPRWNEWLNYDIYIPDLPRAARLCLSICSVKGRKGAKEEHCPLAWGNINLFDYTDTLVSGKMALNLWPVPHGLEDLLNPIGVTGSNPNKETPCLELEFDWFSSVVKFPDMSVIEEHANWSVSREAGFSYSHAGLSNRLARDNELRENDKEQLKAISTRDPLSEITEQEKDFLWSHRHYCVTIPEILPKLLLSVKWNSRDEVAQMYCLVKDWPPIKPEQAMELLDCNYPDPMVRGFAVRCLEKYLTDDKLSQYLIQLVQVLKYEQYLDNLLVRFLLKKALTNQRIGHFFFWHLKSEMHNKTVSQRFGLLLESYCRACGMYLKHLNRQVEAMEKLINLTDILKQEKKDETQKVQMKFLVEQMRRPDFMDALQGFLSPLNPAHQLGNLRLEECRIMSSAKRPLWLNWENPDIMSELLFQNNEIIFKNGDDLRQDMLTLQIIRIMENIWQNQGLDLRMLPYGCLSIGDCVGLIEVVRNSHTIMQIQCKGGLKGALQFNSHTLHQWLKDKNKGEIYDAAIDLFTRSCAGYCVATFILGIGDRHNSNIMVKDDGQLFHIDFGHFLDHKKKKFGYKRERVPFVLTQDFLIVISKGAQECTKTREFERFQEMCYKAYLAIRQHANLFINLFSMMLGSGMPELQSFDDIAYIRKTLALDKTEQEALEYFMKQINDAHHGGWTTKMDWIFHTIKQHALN
# [21] = target: Mitogen-activated protein kinase 4 (Homo sapiens) (UniProt P31152); conditions: Compound concentration 1000.0 nM
# [22] = target: Calcium/calmodulin-dependent protein kinase type II subunit delta (Homo sapiens) (UniProt Q13557); conditions: Compound concentration 1000.0 nM
# [23] = target: Eukaryotic translation initiation factor 2-alpha kinase 1 (Homo sapiens) (UniProt Q9BQI3); conditions: Compound concentration 1000.0 nM
# [24] = target: Calcium/calmodulin-dependent protein kinase type II subunit gamma (Homo sapiens) (UniProt Q13555); conditions: Compound concentration 1000.0 nM
# [25] = system: Phosphatidylinositol 4,5-bisphosphate 3-kinase catalytic subunit alpha isoform (Homo sapiens), P42336 [I800L]; conditions: Compound concentration 1000.0 nM
# Chain of Phosphatidylinositol 4,5-bisphosphate 3-kinase catalytic subunit alpha isoform (Homo sapiens), P42336 [I800L] (P42336 whole entry I800L, canonical isoform): as the sequence (P42336 whole entry M1043I, canonical isoform) above, with I800L, I1043M counted along it
# [26] = target: Serine/threonine-protein kinase Nek3 (Homo sapiens) (UniProt P51956); conditions: Compound concentration 1000.0 nM
# Chain of Serine/threonine-protein kinase Nek3 (Homo sapiens) (P51956 whole entry): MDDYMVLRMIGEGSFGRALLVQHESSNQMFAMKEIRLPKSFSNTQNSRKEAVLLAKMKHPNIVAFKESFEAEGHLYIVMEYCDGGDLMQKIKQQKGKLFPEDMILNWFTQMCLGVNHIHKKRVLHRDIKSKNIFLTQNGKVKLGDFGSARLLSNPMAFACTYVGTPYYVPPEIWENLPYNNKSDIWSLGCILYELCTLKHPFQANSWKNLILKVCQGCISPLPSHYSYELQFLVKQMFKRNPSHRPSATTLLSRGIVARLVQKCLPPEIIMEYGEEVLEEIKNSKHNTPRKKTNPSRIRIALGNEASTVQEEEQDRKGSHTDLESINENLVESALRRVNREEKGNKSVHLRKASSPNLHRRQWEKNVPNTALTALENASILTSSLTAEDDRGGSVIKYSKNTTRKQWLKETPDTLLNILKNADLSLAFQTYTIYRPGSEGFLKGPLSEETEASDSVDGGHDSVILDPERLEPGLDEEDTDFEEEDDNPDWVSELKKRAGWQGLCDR
# [27] = target: Receptor-type tyrosine-protein kinase FLT3 (Homo sapiens) (UniProt P36888); conditions: Compound concentration 1000.0 nM
# [28] = target: Tyrosine-protein kinase SYK (Homo sapiens) (UniProt P43405); conditions: Compound concentration 1000.0 nM
# [29] = target: Platelet-derived growth factor receptor alpha (Homo sapiens) (UniProt P16234); conditions: Compound concentration 1000.0 nM
# [30] = target: Dual specificity protein kinase TTK (Homo sapiens) (UniProt P33981); conditions: Compound concentration 1000.0 nM
# [31] = target: Mitogen-activated protein kinase 3 (Homo sapiens) (UniProt P27361); conditions: Compound concentration 1000.0 nM
# [32] = target: Atypical kinase COQ8A, mitochondrial (Homo sapiens) (UniProt Q8NI60); conditions: Compound concentration 1000.0 nM
# [33] = target: RAF proto-oncogene serine/threonine-protein kinase (Homo sapiens) (UniProt P04049); conditions: Compound concentration 1000.0 nM
# [34] = target: Non-receptor tyrosine-protein kinase TYK2 (Homo sapiens) (UniProt P29597); conditions: Compound concentration 1000.0 nM
# [35] = target: Cyclin-dependent kinase 9 (Homo sapiens) (UniProt P50750); conditions: Compound concentration 1000.0 nM
# [36] = target: Cyclin-G-associated kinase (Homo sapiens) (UniProt O14976); conditions: Compound concentration 1000.0 nM
# [37] = target: Serine/threonine-protein kinase OSR1 (Homo sapiens) (UniProt O95747); conditions: Compound concentration 1000.0 nM
# [38] = target: Calcium/calmodulin-dependent protein kinase type 1G (Homo sapiens) (UniProt Q96NX5); conditions: Compound concentration 1000.0 nM
# [39] = target: BMP-2-inducible protein kinase (Homo sapiens) (UniProt Q9NSY1); conditions: Compound concentration 1000.0 nM
# [40] = target: LIM domain kinase 1 (Homo sapiens) (UniProt P53667); conditions: Compound concentration 1000.0 nM
# [41] = target: Serine/threonine-protein kinase PAK 6 (Homo sapiens) (UniProt Q9NQU5); conditions: Compound concentration 1000.0 nM
# [42] = target: Tyrosine-protein kinase ABL1 (Homo sapiens) (UniProt P00519); conditions: Compound concentration 1000.0 nM
# [43] = target: Receptor tyrosine-protein kinase erbB-3 (Homo sapiens) (UniProt P21860); conditions: Compound concentration 1000.0 nM
# [44] = target: Serine/threonine-protein kinase ULK1 (Homo sapiens) (UniProt O75385); conditions: Compound concentration 1000.0 nM
smiles,measurement,setting,value
COc1ccc2c(O[C@@H]3C[C@H]4C(=O)N[C@]5(C(=O)O)CC5/C=C\CCCCC[C@H](NC(=O)OC5CCCC5)C(=O)N4C3)cc(-c3csc(NC(=O)C(C)C)n3)nc2c1C (stereo partly drawn) [BI 1230],residual activity,[1],65%
same,inhibition,[2],28%
same,inhibition,[3],10.2%
same,residual activity,[4],87%
same,residual activity,[5],100%
same,residual activity,[6],85%
same,residual activity,[7],98%
same,residual activity,[8],62%
same,residual activity,[9],100%
same,residual activity,[10],100%
same,residual activity,[11],100%
same,inhibition,[12],32.5%
same,residual activity,[13],99%
same,residual activity,[14],100%
same,residual activity,[15],99%
same,residual activity,[16],100%
same,residual activity,[17],94%
same,residual activity,[18],79%
same,residual activity,[19],95%
same,residual activity,[20],88%
same,residual activity,[21],93%
same,residual activity,[22],100%
same,residual activity,[23],96%
same,residual activity,[24],100%
same,residual activity,[25],65%
same,residual activity,[26],76%
same,residual activity,[27],88%
same,residual activity,[28],100%
same,residual activity,[29],84%
same,residual activity,[30],100%
same,residual activity,[31],94%
same,residual activity,[32],100%
same,residual activity,[33],95%
same,residual activity,[34],74%
same,residual activity,[35],83%
same,residual activity,[36],95%
same,residual activity,[37],82%
same,residual activity,[38],98%
same,residual activity,[39],90%
same,residual activity,[40],100%
same,residual activity,[41],100%
same,residual activity,[42],74%
same,residual activity,[43],88%
same,residual activity,[44],93%
O=C(N[C@H]1CCCCC/C=C\C2C[C@@]2(C(=O)O)NC(=O)[C@@H]2C[C@@H](Oc3ccncc3)CN2C1=O)OC1CCCC1 (stereo partly drawn) [BI 1675],residual activity,[1],78%
same,inhibition,[2],18.5%
same,inhibition,[3],9.48%
same,residual activity,[4],100%
same,residual activity,[5],90%
same,residual activity,[6],80%
same,residual activity,[7],100%
same,residual activity,[8],49%
same,residual activity,[9],83%
same,residual activity,[10],100%
same,residual activity,[11],81%
same,inhibition,[12],3.22%
same,residual activity,[13],89%
same,residual activity,[14],100%
same,residual activity,[15],100%
same,residual activity,[16],100%
same,residual activity,[17],100%
same,residual activity,[18],100%
same,residual activity,[19],86%
same,residual activity,[20],84%
same,residual activity,[21],100%
same,residual activity,[22],87%
same,residual activity,[23],100%
same,residual activity,[24],86%
same,residual activity,[25],100%
same,residual activity,[26],100%
same,residual activity,[27],93%
same,residual activity,[28],100%
same,residual activity,[29],99%
same,residual activity,[30],79%
same,residual activity,[31],69%
same,residual activity,[32],90%
same,residual activity,[33],100%
same,residual activity,[34],99%
same,residual activity,[35],91%
same,residual activity,[36],90%
same,residual activity,[37],75%
same,residual activity,[38],76%
same,residual activity,[39],96%
same,residual activity,[40],92%
same,residual activity,[41],100%
same,residual activity,[42],85%
same,residual activity,[43],84%
same,residual activity,[44],100%
